Measurements reported in paper PMC6071539 (Theranostics, 2018).

Columns and labels:
[1] = tested on: carboxylesterases; conditions: in the body, background statement; cited from earlier work
[2] = clinical; cited from earlier work
[3] = tested on: Hep 3B; assay: In vitro cytotoxicity, MTT assay, Hep 3B; assay type: cell-based; conditions: Homo sapiens, Hep3B, 72 h, read-out: IC50 ± SD
[4] = tested on: human HCC PDX tumors; assay: Antitumor activity in human HCC PDX tumor model; assay type: in vivo, Balb/c nude mice; conditions: i.v. x3
[5] = tested on: BEL-7402; assay: In vitro cytotoxicity, MTT assay, BEL-7402; assay type: cell-based; conditions: Homo sapiens, Bel-7402, 72 h, read-out: IC50 ± SD
[6] = Bloody diarrhea and intestinal damage study; assay type: in vivo, Balb/c mice
[7] = Pharmacokinetics after single i.v. injection; conditions: Sprague-Dawley, rat, in vivo, iv, 12 mg/kg
[8] = tested on: Hep 3B cells; assay: Cell proliferation by EdU incorporation; assay type: cell-based, human; conditions: 2 μM SN38 equivalent, 24 h
[9] = Drug loading and encapsulation efficiency by RP-HPLC; assay type: physicochemical; conditions: PEG5k-PLA8k NPs, matrices/SN38 feed weight ratio 19:1, n = 3
[10] = tested on: advanced HCC; conditions: patients with advanced HCC; cited from earlier work

| AUC(0-inf) [7] | AUC(0-t) [7] | Cmax [7] | EE (encapsulation efficiency) [9] | Compound | Enzymatic conversion to SN38, share of dosed CPT-11 [1] | Incidence of grade 3 or 4 diarrhea [2] | IC50 [3] | Antitumor efficacy [4] | IC50 [5] | Large intestine histology (H&E) ([6]; day 9, healthy Balb/c mice) | Onset of bloody diarrhea ([6]; healthy Balb/c mice, CPT-11 22.5 mg/kg i.v. x3) | Effect on proliferation (EdU incorporation) [8] | Extension of median overall survival compared with a placebo [10] |
| --- | --- | --- | --- | --- | --- | --- | --- | --- | --- | --- | --- | --- | --- |
| 68900 ng·h/mL | 67600 ng·h/mL | 23800 ng/mL | – | CCc1c2c(nc3ccc(OC(=O)N4CCC(N5CCCCC5)CC4)cc13)-c1cc3c(c(=O)n1C2)COC(=O)[C@]3(O)CC [CPT-11, irinotecan] | less than 8% | 31% | 49.3 ± 3.3 µM | moderate efficacy | 42 ± 2.06 µM | destruction of these tissues by eliminating the glands and causing diffuse mucosal damage | 2 days | negligible effect | – |
| – | – | – | < 5% | CCc1c2c(nc3ccc(O)cc13)-c1cc3c(c(=O)n1C2)COC(=O)[C@]3(O)CC [SN38, 7-ethyl-10-hydroxycamptothecin] | – | – | 7.74 ± 1.18 µM | – | 2.76 ± 0.16 µM | – | – | – | – |
| – | – | – | – | CNC(=O)c1cc(Oc2ccc(NC(=O)Nc3ccc(Cl)c(C(F)(F)F)c3)cc2)ccn1 [sorafenib] | – | – | – | – | – | – | – | – | 2.8 months |
